From US12234486B2, “Modular, microfluidic, mechanically active bioreactor for 3D, multi-tissue, tissue culture” (University of Pittsburgh—Of the Commonwealth System of …, priority 2013, dated 2025)

System: chondrocytes in the cartilage chamber
Experiment: RT-PCR marker expression in cartilage (top) chamber of bioreactor after hormone supply
Assay type: cell-based
Conditions: progesterone progressively added to estradiol, week 3 and 4 (10 nM, 50 nM), higher when hormones directly applied to cartilage
Procedure: FIGS. 17-20 are graphs that show differential expression of markers (as determined by RT-PCR) for a control medium that contained no estrogen or progesterone (first bar), and then different concentrations of hormones supplied to one or the other of the bioreactor chambers during week 1 (w1: 0.1 nM estradiol), week 2 (w2: 1 nM estradiol), week 3 (w3: 1 nM estradiol and 10 nM progesterone), and week 4 (w4: 0.1 nM estradiol and 50 nM progesterone). […] FIGS. 17-18 show differential expression of markers (as determined by RT-PCR) for a control medium that contained no estrogen or progesterone (first bar), and then different concentrations of hormones supplied to the chambers during week 1 (w1: 0.1 nM estradiol), week 2 (w2: 1 nM estradiol), week 3 (w3: 1 nM estradiol and 10 nM progesterone), and week 4 (w4: 0.1 nM estradiol and 50 nM progesterone).

## CC(=O)[C@H]1CC[C@H]2[C@@H]3CCC4=CC(=O)CC[C@]4(C)[C@H]3CC[C@]12C [progesterone]
  cartilage anabolic markers (Sox9, Aggrecan): downregulation is still present
